Cytotoxicity data for 95 compounds are collected here from ChEMBL document CHEMBL3507680, “University of Dundee, Gates Library screen for HepG2 cell viability”.

The nature of the series: Human HepG2 cell viability assay in 384 well format. The format is toxicity, cell-based. Also noted: dose 125 nL, time 70.5 hour; concentration not given beside the values. Conditions: HepG2 cells, read-out: Inhibition.

For the compound `Cc1cc(C)c2nc(C)cc(C(=O)NC(C)c3nnn[nH]3)c2c1` (stereo not given), the cytotoxicity at 70.5 h was determined as 6.58%.

As for `CC(C)[C@H]1CN(c2cnccn2)C[C@@H]1NC(=O)C1(C#N)CCOCC1`, the cytotoxicity at 70.5 h was -6.21%.

With `CN1CCN(C(=O)c2ccnc(N3CCOC(C(F)(F)F)C3)c2)CC1` (stereo not given), the cytotoxicity at 70.5 h turned out to be 19%.

Regarding `CCc1nccn1CCC(=O)N1CC[C@@H](c2ccc(F)cc2)[C@H](O)C1`, the cytotoxicity at 70.5 h is -12.3%.

As to `CC(C)(C)c1ccn(C2(C(=O)O)CCN(c3ccnc(N)n3)CC2)n1`, the cytotoxicity at 70.5 h is -3.43%.

On to `CCC(=O)c1ccc(OCC(=O)NC(C)c2nnn[nH]2)cc1` (stereo not given), for which the cytotoxicity at 70.5 h is -0.478%.

`Cc1cc(C(=O)NC(C)c2nnn[nH]2)c2ccc(C)c(C)c2n1` (stereo not given): the cytotoxicity at 70.5 h stood at 34.8%.

Take `CSc1ccc(C(=O)N2CCCC(Nc3ccc(F)cc3)C2)cc1` (stereo not given): the cytotoxicity at 70.5 h was -0.171%.

As to `O=C1CC[C@H]2CN(Cc3cccc(F)c3)CC[C@H]2N1CCc1c[nH]cn1`, the cytotoxicity at 70.5 h is -2.79%.

Consider `Clc1cc(NCc2nccs2)nc2[nH]ccc12`, for which the cytotoxicity at 70.5 h is -30.7%.

Consider `O=C(NC[C@H]1CCCN1)c1cc(COc2cccc(C(F)(F)F)c2)[nH]n1`, for which the cytotoxicity at 70.5 h is -2.98%.

Regarding `O=C(c1cccc2ccnn12)N1CCCC1Cn1cccn1` (stereo not given), the cytotoxicity at 70.5 h was -2.56%.

`Cc1cc(C(=O)N[C@H]2COC[C@@H]2N2CCOCC2)c2ccc(F)cc2n1`: the cytotoxicity at 70.5 h is -8.8%.

`OC1(CN2CCCCC2)CCN(Cc2c[nH]c(CC3CCCC3)n2)C1` (stereo not given): the cytotoxicity at 70.5 h was -8.48%.

For `CN(C)C(=O)c1cccnc1-c1ccc2c(c1)OCCO2`, the cytotoxicity at 70.5 h was -18.6%.

As for `COCc1ccc(C(=O)N2CCCN(c3ccc(F)cc3)CC2)s1`, the cytotoxicity at 70.5 h came out at 5.91%.

On to `Cc1cc2nc(C(C)C)cc(NC(C)c3nncn3C)n2n1` (stereo not given), for which the cytotoxicity at 70.5 h was -17.3%.

As for `CCN(Cc1cnn(C)c1)C[C@H]1CC[C@@H](Cc2cccc(C#N)c2)O1`, the cytotoxicity at 70.5 h was -5.55%.

Regarding `CC(=O)N1CCC(N2CCN(Cc3ccc(C)o3)C(CCO)C2)CC1` (stereo not given), the cytotoxicity at 70.5 h is -6.87%.

Take `COc1cccn(C(C)C(=O)NC2CCCC2)c1=O` (stereo not given): the cytotoxicity at 70.5 h is -1.93%.

For `CCc1nc(C)c(-c2nccn2CC2CCN(C3CCCC3)CC2)[nH]1`, the cytotoxicity at 70.5 h is -2.56%.

For the compound `CC(C)(C)C(=O)NCCC1CN(Cc2ccccc2F)CCO1` (stereo not given), the cytotoxicity at 70.5 h is -9.52%.

In the case of `CC(CN1CC[C@@H]2CCCC[C@@H]2C1)n1cnc2ccccc21` (stereo not given in full), the cytotoxicity at 70.5 h came to 21.4%.

Turning to `Cc1ncc(S(C)(=O)=O)c(N(C)CCCc2cnn(C)c2)n1`, the cytotoxicity at 70.5 h was -3.73%.

Take `Cc1nc(C(F)(F)F)nc(N2CCC3(CC2)CC(C(=O)O)N(C)C3)c1C` (stereo not given): the cytotoxicity at 70.5 h is -5.6%.

`c1coc(-c2nc3c(c(N4CCCN5CCC[C@H]5C4)n2)CCNCC3)c1`: the cytotoxicity at 70.5 h was -2.19%.

Turning to `Cc1ccsc1-c1nccn1C1CC(=O)N(C(C)C)C1` (stereo not given), the cytotoxicity at 70.5 h is -5.72%.

Consider `CN(C)CC1(O)CCCN(C(=O)Cc2ccc(Cl)c(Cl)c2)C1` (stereo not given), for which the cytotoxicity at 70.5 h was -2.73%.

`FC(F)(F)C1CN(Cc2cccc(-c3ccccn3)c2)CCO1` (stereo not given): the cytotoxicity at 70.5 h was -6.31%.

For the compound `CNc1cc(C)nc(N2CCC3(CC2)[C@H](O)C[C@@H]3O)n1`, the cytotoxicity at 70.5 h was -6.92%.

As to `Cn1ccnc1CN1CCC(CNS(=O)(=O)c2cccnc2)C1` (stereo not given), the cytotoxicity at 70.5 h was 7.54%.

With `CCn1ccnc1C1CCN(c2ncnc3ccsc23)CC1`, the cytotoxicity at 70.5 h worked out at 7.55%.

With `COc1ccc(/C=C/CN2CCN(c3nccnc3C)CC2)cc1`, the cytotoxicity at 70.5 h was -5.85%.

`Cc1ccsc1-c1nc(CN(C)Cc2cc[nH]n2)c(C)o1`: the cytotoxicity at 70.5 h was found to be 12.8%.

Regarding `Cc1ccnc(CC(C)N(C)Cc2ccc3c(c2)OCCO3)c1` (stereo not given), the cytotoxicity at 70.5 h was -0.147%.

For the compound `N#Cc1nccnc1N1CCN(CCOCc2ccccc2)CC1`, the cytotoxicity at 70.5 h came out at 16.9%.

Turning to `Cc1[nH]c(=O)[nH]c(=O)c1CC(=O)N1CCCN(CC2CC2)C(C(C)C)C1` (stereo not given), the cytotoxicity at 70.5 h amounted to 0.527%.

In the case of `COc1cc(N(C)Cc2cccc(-n3cccn3)c2)nc(N)n1`, the cytotoxicity at 70.5 h is -1.55%.

With `Cc1ccc(C(=O)N2C[C@@H]3CC[C@H](C2)N(Cc2ccccc2)C3)cn1`, the cytotoxicity at 70.5 h was 17.8%.

With `Cc1ccc(CN2CC[C@@]3(O)CCN(S(=O)(=O)N(C)C)C[C@H]3C2)cc1C`, the cytotoxicity at 70.5 h was -16%.

With `CCCn1ncc(C(=O)N(CCOC)Cc2c(C)nn(CC)c2C)c1C`, the cytotoxicity at 70.5 h was -7.73%.

Regarding `Cc1nn2c(N3CCC(C(N)=O)CC3)cc(-c3ccccc3)nc2c1C`, the cytotoxicity at 70.5 h was -2.04%.

For `CCn1ccnc1CN1CCC(Oc2ccccc2F)(C(=O)O)CC1`, the cytotoxicity at 70.5 h was -0.995%.

Consider `Nc1ccc(CC2COc3ccccc3C2)cn1` (stereo not given), for which the cytotoxicity at 70.5 h is -5.61%.

Take `CC(O)CN1CC2(CCC1=O)CCN(Cc1cc(F)ccc1Cl)CC2` (stereo not given): the cytotoxicity at 70.5 h is -2.56%.

In the case of `Cc1cc(N2CCC(n3cc(CCCO)nn3)CC2)ccn1`, the cytotoxicity at 70.5 h was -9.19%.

As to `Cc1cnccc1CN(C)C(=O)C(C)(C)NC(=O)c1cccs1`, the cytotoxicity at 70.5 h was 0.902%.

Turning to `Cc1ccsc1[C@@H]1CCN(C(=O)Cn2cc3ccccc3n2)C[C@H]1O`, the cytotoxicity at 70.5 h worked out at 15.1%.

For `O=C(c1ccco1)N1CCC(n2cc(-c3ccsc3)nn2)CC1`, the cytotoxicity at 70.5 h was -5.81%.

On to `Cc1ccc(CN2CCN(Cc3ccncc3)CC2=O)cc1`, for which the cytotoxicity at 70.5 h is -0.378%.

For `Cc1cc(F)ccc1N1CCC(N2C[C@@H](C)[C@@](C)(O)C2)CC1`, the cytotoxicity at 70.5 h was -5.91%.

Take `COc1ccc(CN2C[C@@H](CN(C)C)[C@@H](CO)C2)cc1CN1CCCC1`: the cytotoxicity at 70.5 h is 5.87%.

As to `Cc1noc(C)c1CN(C)c1nc(C2CCCC2)nc2c1cnn2C`, the cytotoxicity at 70.5 h amounted to 9.62%.

As for `O=S1(=O)COCCN1CCCOc1ccc(F)cc1`, the cytotoxicity at 70.5 h is 22.1%.

`CCCN1CCN(C(=O)c2ccnc(N)c2)[C@H]2CS(=O)(=O)C[C@H]21`: the cytotoxicity at 70.5 h worked out at 2.28%.

Turning to `CCN(Cc1cnn(C)c1)C(=O)c1ccc(C)c(N2CCNC2=O)c1`, the cytotoxicity at 70.5 h is -17.2%.

Take `Cn1cc(C(=O)N2CC[C@@]3(O)CCN(C(=O)C4CCCC4)C[C@H]3C2)cn1`: the cytotoxicity at 70.5 h is -10.4%.

For `CCN1CC(C(=O)NCCc2csc(-c3ccncc3)n2)CCC1=O` (stereo not given), the cytotoxicity at 70.5 h was -5.21%.

`Cc1nn(C)c2nc(NCCCN3CCCC(CO)C3)sc12` (stereo not given): the cytotoxicity at 70.5 h is -9.15%.

Consider `CCOC(=O)C1(CCOC)CCCN(Cc2nccn2CC)C1` (stereo not given), for which the cytotoxicity at 70.5 h is -18.3%.

On to `CN(C)C(=O)c1cc(-c2cnc(N)nc2)nc2cc(F)ccc12`, for which the cytotoxicity at 70.5 h is -2.39%.

For `C[C@@H]1CN(Cc2cc3ccccc3n2C)CC[C@]1(C)O`, the cytotoxicity at 70.5 h is 16.1%.

As for `Cc1oc(-c2ccoc2)nc1CN1CCCCC1CCc1ccccc1` (stereo not given), the cytotoxicity at 70.5 h was -2.03%.

As for `CN(CCCc1cnn(C)c1)C(=O)C1CCC(=O)N(C2CCCC2)C1` (stereo not given), the cytotoxicity at 70.5 h was -0.586%.

`CC(C)(O)CCc1ccc(C(=O)N2CCN(CC3CCCC3)CC2)cc1`: the cytotoxicity at 70.5 h was determined as 4.24%.

As for `O=C(c1scc2c1OCCO2)N1CCOC(Cc2cccc(F)c2)C1` (stereo not given), the cytotoxicity at 70.5 h was -5.83%.

On to `Cc1c(-c2c(-c3ccccc3)ncn2[C@@H](C(=O)O)[C@H](C)O)cnn1C`, for which the cytotoxicity at 70.5 h amounted to 3.82%.

Turning to `CS(=O)(=O)NCCC1CN(Cc2ccccc2F)CCO1` (stereo not given), the cytotoxicity at 70.5 h turned out to be 0.792%.

Turning to `CC1CCCCN1C1CN(c2nc(C3CCCC3)nc3c2cnn3C)C1` (stereo not given), the cytotoxicity at 70.5 h was -3.67%.

In the case of `CCn1cc(CN2CCN(C)C3(CCC(=O)N(CC4CC4)CC3)C2)cn1` (stereo not given), the cytotoxicity at 70.5 h was determined as 1.18%.

As to `CN(C)CC1(O)CCCN(c2nc(-c3ccccc3)no2)CC1` (stereo not given), the cytotoxicity at 70.5 h is -7.51%.

For the compound `c1ccc(Cc2nc(CNC3CCOC4(CCOCC4)C3)no2)cc1` (stereo not given), the cytotoxicity at 70.5 h is -13.7%.

With `CNc1ncc(CN(C)Cc2cc(O)c3cc(C)cc(C)c3n2)cn1`, the cytotoxicity at 70.5 h is -15.9%.

Take `O=C(NCc1cccnc1-n1cncn1)C1CC2(CCNCC2)CN1` (stereo not given): the cytotoxicity at 70.5 h is -4.56%.

As to `CNCC(=O)N1CCCC(c2cccc(Nc3nc(C)cc(C)n3)n2)C1` (stereo not given), the cytotoxicity at 70.5 h amounted to 58.7%.

Turning to `O=C(Cn1ccnc1)N1C[C@@H]2CC[C@H](Oc3ccccc3)[C@@H]2C1`, the cytotoxicity at 70.5 h was -3%.

As to `Cc1nc(N)cc(C2CN(C(=O)c3ccn(C)n3)CCO2)n1` (stereo not given), the cytotoxicity at 70.5 h was -11.7%.

As for `CC(=O)N1CCC(C(=O)N(C)[C@@H]2CCC[C@@H](N3CCCC3)[C@@H]2O)CC1`, the cytotoxicity at 70.5 h was found to be 41.3%.

In the case of `COc1ccc(C2(NC(=O)CCn3cncn3)CCCCC2)cc1`, the cytotoxicity at 70.5 h was -6.29%.

`O=C(c1ccccn1)N1CCc2c(nc(N3CCCC3)[nH]c2=O)C1`: the cytotoxicity at 70.5 h was -1.38%.

As to `O=C(Cn1c(=O)n(Cc2ccco2)c2ncccc21)NC1CCCCC1`, the cytotoxicity at 70.5 h stood at 38.5%.

With `O=C(c1cccs1)N1CCC(Cn2nc(-c3ccco3)ccc2=O)CC1`, the cytotoxicity at 70.5 h came out at 8.96%.

In the case of `O=C(Cc1ccsc1)N1CCC(n2nc(-c3ccco3)ccc2=O)CC1`, the cytotoxicity at 70.5 h stood at 1.25%.

With `O=C(c1cccs1)N1CCC(n2nc(-c3ccco3)ccc2=O)CC1`, the cytotoxicity at 70.5 h came to 11.7%.

As for `COc1cc2nc3n(c(=O)c2cc1OC)CCN(C)CC3`, the cytotoxicity at 70.5 h was 3.41%.

Consider `Cc1cc(-c2cnc(N3CCN(C)CC3)nc2-c2ccc(C)s2)on1`, for which the cytotoxicity at 70.5 h stood at 6.38%.

Regarding `Cc1nccn1-c1cccc(C2CCCN(C3CCCCC3)C2)n1` (stereo not given), the cytotoxicity at 70.5 h turned out to be 2.4%.

Take `CN1CCCC(Cc2cncc(Br)c2)CC1` (stereo not given): the cytotoxicity at 70.5 h amounted to 0.975%.

Consider `CN1CCCC[C@@H]2[C@H]1[C@@H](c1ccccc1)CCN2C(=O)c1ccccc1`, for which the cytotoxicity at 70.5 h is 1.32%.

Regarding `Cc1nc(O)c2nnn(C[C@H]3CCCN3C(=O)CCC3CCCC3)c2n1`, the cytotoxicity at 70.5 h was 5.57%.

Regarding `Cc1nc(C2CCN(C(=O)c3ccc(=O)n(C)c3)CC2)c2sccn12`, the cytotoxicity at 70.5 h came to 2.35%.

As for `Fc1ccc(CCN2CCC(c3nnc(-c4cccnc4)o3)CC2)cc1`, the cytotoxicity at 70.5 h turned out to be 16.7%.

`c1nc(CCC2CCCN2)cc(N2CCCOCC2)n1` (stereo not given): the cytotoxicity at 70.5 h was 9.03%.

Take `Cn1nc(C2CCN(C(=O)Cc3cccc(F)c3)CC2)c2cccnc21`: the cytotoxicity at 70.5 h was -6.14%.

In the case of `Cc1cc(C)nc(Nc2cc(C3CCCN(C)C3)nc(C)n2)n1` (stereo not given), the cytotoxicity at 70.5 h was -27.7%.
